Laboratory results taken from PMC12090182, “Repurposing of the RIPK1-Selective Benzo[1,4]oxazepin-4-one Scaffold for the Development of a Type III LIMK1/2 Inhibitor” (ACS Chemical Biology, 2025).

What was measured:
Assay in all cases: scanMAX KINOMEscan (Eurofins)
Assay type in all cases: binding
ABL1-phosphorylated = ABL1-phosphorylated (Homo sapiens, UniProt P00519); conditions: read-out: Percent Control
Excerpt: (§1) Supplement cb5c00097_si_002.xlsx, sheet "Table S6 (Eurofins Selectivity)" | column: Percent Control

ADCK4 = ADCK4 (Homo sapiens, UniProt Q96D53); conditions: 1000 nM, read-out: Percent Control
Excerpt: as §1

ANKK1 = ANKK1 (Homo sapiens, UniProt Q8NFD2); conditions: 1000 nM, read-out: Percent Control
Excerpt: as §1

CAMK2D = CAMK2D (Homo sapiens, UniProt Q13557); conditions: 1000 nM, read-out: Percent Control
Excerpt: as §1

CDC2L1 = CDC2L1 (Homo sapiens, UniProt P21127); conditions: 1000 nM, read-out: Percent Control
Excerpt: as §1

DAPK3 = DAPK3 (Homo sapiens, UniProt O43293); conditions: 1000 nM, read-out: Percent Control
Excerpt: as §1

DCAMKL1 = DCAMKL1 (Homo sapiens, UniProt O15075); conditions: read-out: Percent Control
Excerpt: as §1

EPHA5 = EPHA5 (Homo sapiens, UniProt P54756); conditions: 1000 nM, read-out: Percent Control
Excerpt: as §1

EPHB4 = EPHB4 (Homo sapiens, UniProt P54760); conditions: 1000 nM, read-out: Percent Control
Excerpt: as §1

FLT1 = FLT1 (Homo sapiens, UniProt P17948); conditions: 1000 nM, read-out: Percent Control
Excerpt: as §1

HIPK3 = HIPK3 (Homo sapiens, UniProt Q9H422); conditions: 1000 nM, read-out: Percent Control
Excerpt: as §1

JNK3 = JNK3 (Homo sapiens, UniProt P53779); conditions: 1000 nM, read-out: Percent Control
Excerpt: as §1

MAP3K15 = MAP3K15 (Homo sapiens, UniProt Q6ZN16); conditions: compound concentration 100 nM; Entrez MAP3K15; read-out: Percent Control
Excerpt: as §1

MAPKAPK2 = MAPKAPK2 (Homo sapiens, UniProt P49137); conditions: 1000 nM, read-out: Percent Control
Excerpt: as §1

MKNK2 = MKNK2 (Homo sapiens, UniProt Q9HBH9); conditions: compound concentration 100 nM; Entrez MKNK2; read-out: Percent Control
Excerpt: as §1

MST1R = MST1R (Homo sapiens, UniProt Q04912); conditions: 1000 nM, read-out: Percent Control
Excerpt: as §1

MTOR = MTOR (Homo sapiens, UniProt P42345); conditions: compound concentration 100 nM; Entrez MTOR; read-out: Percent Control
Excerpt: as §1

MYO3A = MYO3A (Homo sapiens, UniProt Q8NEV4); conditions: 1000 nM, read-out: Percent Control
Excerpt: as §1

NEK7 = NEK7 (Homo sapiens, UniProt Q8TDX7); conditions: 1000 nM, read-out: Percent Control
Excerpt: as §1

PAK6 = PAK6 (Homo sapiens, UniProt Q9NQU5); conditions: compound concentration 100 nM; Entrez PAK6; read-out: Percent Control
Excerpt: as §1

PHKG2 = PHKG2 (Homo sapiens, UniProt P15735); conditions: 1000 nM, read-out: Percent Control
Excerpt: as §1

PLK2 = PLK2 (Homo sapiens, UniProt Q9NYY3); conditions: compound concentration 100 nM; Entrez PLK2; read-out: Percent Control
Excerpt: as §1

PRKCD = PRKCD (Homo sapiens, UniProt Q05655); conditions: compound concentration 100 nM; Entrez PRKCD; read-out: Percent Control
Excerpt: as §1

PRKD1 = PRKD1 (Homo sapiens, UniProt Q15139); conditions: 1000 nM, read-out: Percent Control
Excerpt: as §1

RIOK1 = RIOK1 (Homo sapiens, UniProt Q9BRS2); conditions: 1000 nM, read-out: Percent Control
Excerpt: as §1

[1] = target: RPS6KA4(Kin.Dom.1-N-terminal) (Homo sapiens, UniProt O75676); conditions: compound concentration 100 nM; Entrez RPS6KA4; read-out: Percent Control
Excerpt: as §1

[2] = target: RPS6KA4(Kin.Dom.2-C-terminal) (Homo sapiens, UniProt O75676); conditions: compound concentration 100 nM; Entrez RPS6KA4; read-out: Percent Control
Excerpt: as §1

[3] = target: RPS6KA5(Kin.Dom.1-N-terminal) (Homo sapiens, UniProt O75582); conditions: compound concentration 100 nM; Entrez RPS6KA5; read-out: Percent Control
Excerpt: as §1

[4] = target: RSK4(Kin.Dom.1-N-terminal) (Homo sapiens, UniProt Q9UK32); conditions: compound concentration 100 nM; Entrez RPS6KA6; read-out: Percent Control
Excerpt: as §1

SLK = SLK (Homo sapiens, UniProt Q9H2G2); conditions: 1000 nM, read-out: Percent Control
Excerpt: as §1

SNRK = SNRK (Homo sapiens, UniProt Q9NRH2); conditions: compound concentration 100 nM; Entrez SNRK; read-out: Percent Control
Excerpt: as §1

SRPK2 = SRPK2 (Homo sapiens, UniProt P78362); conditions: compound concentration 100 nM; Entrez SRPK2; read-out: Percent Control
Excerpt: as §1

TRKB = TRKB (Homo sapiens, UniProt Q16620); conditions: 1000 nM, read-out: Percent Control
Excerpt: as §1

TRPM6 = TRPM6 (Homo sapiens, UniProt Q9BX84); conditions: compound concentration 100 nM; Entrez TRPM6; read-out: Percent Control
Excerpt: as §1

WNK3 = WNK3 (Homo sapiens, UniProt Q9BYP7); conditions: 1000 nM, read-out: Percent Control
Excerpt: as §1

DCAMKL1, sequence (O15075 whole entry): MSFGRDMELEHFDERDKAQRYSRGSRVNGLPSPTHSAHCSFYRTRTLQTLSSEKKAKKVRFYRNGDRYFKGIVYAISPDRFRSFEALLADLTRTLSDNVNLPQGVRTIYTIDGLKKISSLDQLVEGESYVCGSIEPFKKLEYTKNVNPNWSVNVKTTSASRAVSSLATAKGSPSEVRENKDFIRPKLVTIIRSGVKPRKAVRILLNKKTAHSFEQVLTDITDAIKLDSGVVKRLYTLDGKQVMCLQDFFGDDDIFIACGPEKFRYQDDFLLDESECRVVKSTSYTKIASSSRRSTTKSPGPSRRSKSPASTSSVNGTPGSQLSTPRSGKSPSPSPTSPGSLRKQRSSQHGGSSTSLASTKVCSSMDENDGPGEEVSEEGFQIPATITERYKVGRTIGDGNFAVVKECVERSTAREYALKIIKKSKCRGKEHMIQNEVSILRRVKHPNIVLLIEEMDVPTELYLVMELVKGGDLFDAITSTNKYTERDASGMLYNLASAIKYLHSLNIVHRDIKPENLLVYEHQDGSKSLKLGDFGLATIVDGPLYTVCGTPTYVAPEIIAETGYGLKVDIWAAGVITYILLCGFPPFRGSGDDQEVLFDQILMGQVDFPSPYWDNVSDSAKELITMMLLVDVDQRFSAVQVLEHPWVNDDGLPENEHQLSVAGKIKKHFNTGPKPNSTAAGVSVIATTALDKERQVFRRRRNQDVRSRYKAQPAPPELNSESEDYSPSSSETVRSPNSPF
ABL1-phosphorylated, sequence (P00519 whole entry): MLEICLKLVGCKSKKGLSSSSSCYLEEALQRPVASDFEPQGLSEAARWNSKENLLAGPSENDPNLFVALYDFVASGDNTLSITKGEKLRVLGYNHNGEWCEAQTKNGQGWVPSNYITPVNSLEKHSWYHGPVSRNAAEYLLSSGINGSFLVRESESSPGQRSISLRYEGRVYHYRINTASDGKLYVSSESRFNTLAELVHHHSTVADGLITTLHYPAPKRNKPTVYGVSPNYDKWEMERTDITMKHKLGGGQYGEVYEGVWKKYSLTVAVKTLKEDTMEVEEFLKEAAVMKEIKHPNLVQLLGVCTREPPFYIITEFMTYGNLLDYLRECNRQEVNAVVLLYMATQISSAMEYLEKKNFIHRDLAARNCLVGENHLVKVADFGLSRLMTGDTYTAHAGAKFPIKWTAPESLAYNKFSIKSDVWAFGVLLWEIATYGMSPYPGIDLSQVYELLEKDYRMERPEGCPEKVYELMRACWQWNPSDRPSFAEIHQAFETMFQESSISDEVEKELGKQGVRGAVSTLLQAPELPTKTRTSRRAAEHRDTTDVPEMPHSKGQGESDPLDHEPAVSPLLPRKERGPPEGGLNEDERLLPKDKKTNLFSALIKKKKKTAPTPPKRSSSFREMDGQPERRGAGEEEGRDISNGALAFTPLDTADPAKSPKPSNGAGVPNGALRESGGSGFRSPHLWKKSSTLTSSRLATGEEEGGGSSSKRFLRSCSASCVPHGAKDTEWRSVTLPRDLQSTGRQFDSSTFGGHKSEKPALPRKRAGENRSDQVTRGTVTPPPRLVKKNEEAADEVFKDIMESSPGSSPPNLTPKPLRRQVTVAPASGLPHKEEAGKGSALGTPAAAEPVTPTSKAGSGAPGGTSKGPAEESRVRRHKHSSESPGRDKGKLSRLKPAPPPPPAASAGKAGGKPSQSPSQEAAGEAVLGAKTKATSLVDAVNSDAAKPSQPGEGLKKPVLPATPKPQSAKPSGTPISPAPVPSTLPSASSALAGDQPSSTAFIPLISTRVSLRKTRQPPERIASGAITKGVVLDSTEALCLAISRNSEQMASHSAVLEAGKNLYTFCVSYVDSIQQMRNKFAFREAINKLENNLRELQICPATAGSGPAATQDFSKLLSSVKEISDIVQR
EPHB4, sequence (P54760 16-987): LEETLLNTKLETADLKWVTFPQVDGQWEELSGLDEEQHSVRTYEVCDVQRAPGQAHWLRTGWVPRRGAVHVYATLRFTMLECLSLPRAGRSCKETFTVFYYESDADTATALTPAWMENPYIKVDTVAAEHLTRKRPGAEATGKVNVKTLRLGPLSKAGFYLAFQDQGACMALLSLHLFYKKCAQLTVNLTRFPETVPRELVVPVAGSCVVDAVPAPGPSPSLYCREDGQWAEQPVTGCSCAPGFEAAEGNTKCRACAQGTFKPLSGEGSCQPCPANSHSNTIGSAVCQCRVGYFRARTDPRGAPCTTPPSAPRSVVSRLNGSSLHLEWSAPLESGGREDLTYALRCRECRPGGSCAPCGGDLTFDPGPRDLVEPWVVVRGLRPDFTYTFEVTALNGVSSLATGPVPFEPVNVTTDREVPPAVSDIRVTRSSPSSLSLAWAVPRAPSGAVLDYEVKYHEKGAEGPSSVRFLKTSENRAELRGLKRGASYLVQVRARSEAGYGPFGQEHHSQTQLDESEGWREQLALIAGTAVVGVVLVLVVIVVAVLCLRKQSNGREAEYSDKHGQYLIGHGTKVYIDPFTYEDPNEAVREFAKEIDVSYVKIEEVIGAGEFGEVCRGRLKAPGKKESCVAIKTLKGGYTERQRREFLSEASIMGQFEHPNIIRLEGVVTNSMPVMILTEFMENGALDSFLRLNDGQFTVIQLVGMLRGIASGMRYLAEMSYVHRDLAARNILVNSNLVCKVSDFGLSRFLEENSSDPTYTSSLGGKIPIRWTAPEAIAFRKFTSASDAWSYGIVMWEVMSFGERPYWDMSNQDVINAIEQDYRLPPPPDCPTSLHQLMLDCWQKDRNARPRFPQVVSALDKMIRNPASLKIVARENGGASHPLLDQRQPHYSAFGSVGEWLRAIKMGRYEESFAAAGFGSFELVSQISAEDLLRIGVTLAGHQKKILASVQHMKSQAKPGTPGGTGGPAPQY
HIPK3, sequence (Q9H422 whole entry): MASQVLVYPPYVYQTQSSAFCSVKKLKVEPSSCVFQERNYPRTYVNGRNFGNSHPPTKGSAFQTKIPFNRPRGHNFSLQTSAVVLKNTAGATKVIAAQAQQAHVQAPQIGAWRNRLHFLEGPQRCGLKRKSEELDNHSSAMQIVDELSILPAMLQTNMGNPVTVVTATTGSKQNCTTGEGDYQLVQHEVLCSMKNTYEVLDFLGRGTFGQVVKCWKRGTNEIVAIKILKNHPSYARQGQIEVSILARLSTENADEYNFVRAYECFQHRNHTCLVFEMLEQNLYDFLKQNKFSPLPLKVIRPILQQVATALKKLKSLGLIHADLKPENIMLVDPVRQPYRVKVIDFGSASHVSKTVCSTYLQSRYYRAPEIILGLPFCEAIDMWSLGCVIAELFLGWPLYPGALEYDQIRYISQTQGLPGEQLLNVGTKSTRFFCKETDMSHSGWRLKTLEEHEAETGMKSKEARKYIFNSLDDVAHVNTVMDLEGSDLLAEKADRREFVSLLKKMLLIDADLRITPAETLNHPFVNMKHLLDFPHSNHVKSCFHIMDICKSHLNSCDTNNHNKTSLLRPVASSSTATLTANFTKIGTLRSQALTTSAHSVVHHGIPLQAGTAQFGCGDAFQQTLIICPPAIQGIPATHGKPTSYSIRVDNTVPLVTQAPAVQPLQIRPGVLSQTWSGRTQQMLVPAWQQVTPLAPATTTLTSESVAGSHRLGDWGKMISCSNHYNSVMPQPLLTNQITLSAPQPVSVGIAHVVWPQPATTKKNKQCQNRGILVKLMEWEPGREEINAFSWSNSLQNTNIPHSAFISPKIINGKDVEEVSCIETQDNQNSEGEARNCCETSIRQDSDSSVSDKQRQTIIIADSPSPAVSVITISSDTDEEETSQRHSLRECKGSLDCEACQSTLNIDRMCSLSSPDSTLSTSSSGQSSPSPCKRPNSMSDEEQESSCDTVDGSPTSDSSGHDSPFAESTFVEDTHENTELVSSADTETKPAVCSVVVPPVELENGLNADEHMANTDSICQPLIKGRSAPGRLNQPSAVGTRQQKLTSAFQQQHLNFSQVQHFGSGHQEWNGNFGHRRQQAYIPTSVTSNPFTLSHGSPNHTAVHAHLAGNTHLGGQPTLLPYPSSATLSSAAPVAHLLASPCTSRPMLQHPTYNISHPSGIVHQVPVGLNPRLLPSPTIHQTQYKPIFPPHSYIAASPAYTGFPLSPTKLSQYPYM
ANKK1, sequence (Q8NFD2 whole entry): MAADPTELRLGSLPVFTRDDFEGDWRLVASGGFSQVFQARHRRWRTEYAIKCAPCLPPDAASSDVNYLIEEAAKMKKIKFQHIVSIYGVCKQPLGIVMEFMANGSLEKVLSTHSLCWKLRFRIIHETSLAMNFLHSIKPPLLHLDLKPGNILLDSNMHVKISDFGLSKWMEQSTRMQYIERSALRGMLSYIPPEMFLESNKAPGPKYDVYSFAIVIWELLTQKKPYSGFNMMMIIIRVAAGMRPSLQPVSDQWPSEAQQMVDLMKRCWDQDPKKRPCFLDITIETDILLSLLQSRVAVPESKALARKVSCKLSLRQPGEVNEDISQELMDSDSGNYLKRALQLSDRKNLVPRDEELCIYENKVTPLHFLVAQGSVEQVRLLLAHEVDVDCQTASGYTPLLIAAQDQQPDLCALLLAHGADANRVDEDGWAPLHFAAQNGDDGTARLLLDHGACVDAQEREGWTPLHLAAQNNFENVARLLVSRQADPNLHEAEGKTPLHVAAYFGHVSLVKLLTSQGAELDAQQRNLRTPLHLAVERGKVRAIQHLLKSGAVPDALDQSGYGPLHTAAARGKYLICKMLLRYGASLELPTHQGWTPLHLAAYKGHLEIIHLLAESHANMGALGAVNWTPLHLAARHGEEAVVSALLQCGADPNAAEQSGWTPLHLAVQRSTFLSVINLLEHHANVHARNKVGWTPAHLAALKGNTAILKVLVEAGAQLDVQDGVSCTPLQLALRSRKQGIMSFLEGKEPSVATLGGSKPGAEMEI
RPS6KA4(Kin.Dom.2-C-terminal), sequence (O75676 411-674): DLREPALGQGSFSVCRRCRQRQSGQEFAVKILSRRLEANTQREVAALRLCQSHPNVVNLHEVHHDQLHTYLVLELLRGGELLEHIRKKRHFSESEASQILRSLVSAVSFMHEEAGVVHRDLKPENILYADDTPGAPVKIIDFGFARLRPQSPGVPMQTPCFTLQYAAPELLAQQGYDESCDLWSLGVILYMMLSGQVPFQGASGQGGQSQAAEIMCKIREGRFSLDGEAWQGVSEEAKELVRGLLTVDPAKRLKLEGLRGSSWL

`CN1C(=O)[C@@H](N2CCc3c(nn(Cc4ccccc4)c3C(N)=O)C2=O)COc2cc(Cl)ccc21` [Compound 10, (S)-2-benzyl-6-(8-chloro-5-methyl-4-oxo-2,3,4,5-tetrahydrobenzo[b][1,4]oxazepin-3-yl)-7-oxo-4,5,6,7-tetrahydro-2H-pyrazolo[3,4-c]pyridine-3-carboxamide] showed a remaining binding at 1 µM (ABL1-phosphorylated; 1000 nM) of 100%, a remaining binding at 0.1 µM (ABL1-phosphorylated; compound concentration 100 nM, Entrez ABL1) of 97% and a remaining binding at 1 µM (ADCK4) of 80%. It also gave a remaining binding at 1 µM (ANKK1) of 80%, a remaining binding at 1 µM (CAMK2D) of 89% and a remaining binding at 1 µM (CDC2L1) of 83%. For the same compound, the remaining binding at 1 µM (DAPK3) was 87%, the remaining binding at 1 µM (DCAMKL1; 1000 nM) was 100% and the remaining binding at 0.1 µM (DCAMKL1; compound concentration 100 nM, Entrez DCLK1) was 92%. It also gave a remaining binding at 1 µM (EPHA5) of 97%, a remaining binding at 1 µM (EPHB4) of 94% and a remaining binding at 1 µM (FLT1) of 86%. It also gave a remaining binding at 1 µM (HIPK3) of 94%, a remaining binding at 1 µM (JNK3) of 95% and a remaining binding at 0.1 µM (MAP3K15) of 71%. It also gave a remaining binding at 1 µM (MAPKAPK2) of 64%, a remaining binding at 0.1 µM (MKNK2) of 94% and a remaining binding at 1 µM (MST1R) of 91%. It also gave a remaining binding at 0.1 µM (MTOR) of 86%, a remaining binding at 1 µM (MYO3A) of 94% and a remaining binding at 1 µM (NEK7) of 93%. For the same compound, the remaining binding at 0.1 µM (PAK6) was 93%, the remaining binding at 1 µM (PHKG2) was 78% and the remaining binding at 0.1 µM (PLK2) was 100%. The remaining binding at 0.1 µM (PRKCD) was 83%, the remaining binding at 1 µM (PRKD1) was 97% and the remaining binding at 1 µM (RIOK1) was 85%. The remaining binding at 0.1 µM [1] was 81%, the remaining binding at 0.1 µM [2] was 100% and the remaining binding at 0.1 µM [3] was 92%. The remaining binding at 0.1 µM [4] was 100%, the remaining binding at 1 µM (SLK) was 78% and the remaining binding at 0.1 µM (SNRK) was 99%. For the same compound, the remaining binding at 0.1 µM (SRPK2) was 100%, the remaining binding at 1 µM (TRKB) was 76% and the remaining binding at 0.1 µM (TRPM6) was 100%. It also gave a remaining binding at 1 µM (WNK3) of 69%.
